In ChEMBL document CHEMBL3045779, “Microwave solvent-free condition synthesis and pharmacological evaluation of pyrano[3,2-c]quinolines” (2012):

Tests used:
Assay type in all cases: functional
[1] = test system: Escherichia coli; test: Antibacterial activity against Escherichia coli at 50 ug/ml after 24 hr by paper disk diffusion method; conditions: read-out: IZ
[2] = test system: Rattus norvegicus; test: Anti-inflammatory activity inRattus norvegicus albino (rat) assessed as inhibition of carrageenan-induced paw edema at 100 mg/kg administered 1 hr prior to carrageenan-challenge measured after 1 hr by plethysmometric analysis relative to control
[3] = test system: Escherichia coli; test: Antibacterial activity against Escherichia coli at 100 ug/ml after 24 hr by paper disk diffusion method; conditions: read-out: IZ
[4] = test system: Rattus norvegicus; test: Anti-inflammatory activity inRattus norvegicus albino (rat) assessed as inhibition of carrageenan-induced paw edema at 100 mg/kg administered 1 hr prior to carrageenan-challenge measured after 3 hr by plethysmometric analysis relative to control
[5] = test system: Staphylococcus aureus; test: Antibacterial activity against Staphylococcus aureus at 50 ug/ml after 24 hr by paper disk diffusion method; conditions: read-out: IZ
[6] = test system: Rattus norvegicus; test: Anti-inflammatory activity inRattus norvegicus albino (rat) assessed as inhibition of carrageenan-induced paw edema at 100 mg/kg administered 1 hr prior to carrageenan-challenge measured after 2 hr by plethysmometric analysis relative to control
[7] = test system: Staphylococcus aureus; test: Antibacterial activity against Staphylococcus aureus at 100 ug/ml after 24 hr by paper disk diffusion method; conditions: read-out: IZ

Structure (SMILES) | zone of inhibition at 50 µg/mL [1] | inhibition in vivo at 100 mg/kg [2] | zone of inhibition at 100 µg/mL [3] | inhibition in vivo at 100 mg/kg [4] | zone of inhibition at 50 µg/mL [5] | inhibition in vivo at 100 mg/kg [6] | zone of inhibition at 100 µg/mL [7]
CCOC(=O)C1=C(N)Oc2c(c(=O)[nH]c3ccccc23)C1c1cccc([N+](=O)[O-])c1 (centres undefined) | 16.1 mm | 53.5% | 17 mm | 79.3% | 17.3 mm | 69% | 
CCOC(=O)C1=C(N)Oc2c(c(=O)[nH]c3ccc(C)cc23)C1c1cccc([N+](=O)[O-])c1 (centres undefined) | 16.5 mm | 54.3% | 17.4 mm | 75.5% | 18.1 mm | 70.3% | 19.2 mm
CCOC(=O)C1=C(N)Oc2c(c(=O)[nH]c3ccc(C)cc23)C1c1ccccc1Cl (centres undefined) | 15.4 mm | 58.1% | 17.3 mm | 74.2% | 16.1 mm | 68.1% | 17.3 mm
CCOC(=O)C1=C(N)Oc2c(c(=O)[nH]c3ccc(C)cc23)C1c1ccc(Cl)cc1 (centres undefined) | 15.4 mm | 59.4% |  | 77.7% | 15.8 mm | 70.3% | 18.5 mm
CCOC(=O)C1=C(N)Oc2c(c(=O)[nH]c3ccc(C)cc23)C1c1ccccc1 (centres undefined) | 15.7 mm | 56.2% | 16.2 mm | 75.2% | 14.7 mm | 71.1% | 
CCOC(=O)C1=C(N)Oc2c(c(=O)[nH]c3ccc(C)cc23)C1c1ccc(O)cc1 (centres undefined) | 16.2 mm | 57.1% | 18.2 mm | 69.2% | 17.6 mm | 70.4% | 19.7 mm
CCOC(=O)C1=C(N)Oc2c(c(O)nc3ccccc23)C1c1ccccc1 (centres undefined) | 15.2 mm | 54.2% | 16.2 mm | 75.2% | 15.6 mm | 61.9% | 16.7 mm
CC1COc2c(N3CCN(C)CC3)c(F)cc3c(=O)c(C(=O)O)cn1c23 (centres undefined) [OFLOXACIN] |  |  |  |  | 21.2 mm |  | 24.3 mm
CCOC(=O)C1=C(N)Oc2c(c(=O)[nH]c3ccccc23)C1c1ccccc1Cl (centres undefined) | 13.7 mm | 55.6% | 15 mm | 80.6% | 15.2 mm | 69.4% | 16.3 mm
CCOC(=O)C1=C(N)Oc2c(c(=O)[nH]c3ccccc23)C1c1ccc(Cl)cc1 (centres undefined) | 15.2 mm | 56.2% | 16.2 mm | 80.7% | 16.3 mm | 66.1% | 16.7 mm
CCOC(=O)C1=C(N)Oc2c(c(=O)[nH]c3ccccc23)C1c1cccc(Cl)c1 (centres undefined) | 14.1 mm | 57.6% |  | 75.9% | 15.4 mm | 68.5% | 15.7 mm
CCOC(=O)C1=C(N)Oc2c(c(=O)[nH]c3ccccc23)C1c1ccc(O)cc1 (centres undefined) | 15.7 mm | 58.4% | 17 mm | 75.2% | 16.9 mm | 63.4% | 17.6 mm
CCOC(=O)C1=C(N)Oc2c(c(=O)[nH]c3ccc(C)cc23)C1c1cccc(Cl)c1 (centres undefined) | 14.1 mm | 56.4% | 15.2 mm | 75.5% | 14.6 mm | 69.7% | 15.7 mm
CN[C@@H]1[C@H](O[C@H]2[C@H](O[C@H]3[C@H](O)[C@@H](O)[C@H](N=C(N)N)[C@@H](O)[C@@H]3N=C(N)N)O[C@@H](C)[C@]2(O)C=O)O[C@@H](CO)[C@H](O)[C@H]1O [STREPTOMYCIN] | 20.1 mm |  | 25.2 mm |  |  |  | 
